This is an account of results in EP0256532B1, “Use of dihydrobenzopyrane derivatives” (F. HOFFMANN-LA ROCHE AG, priority 1986, dated 1988).

Marks after values point to notes of the source that are not given here.

The test system of assay [1] is Antibiotika-induzierte Kolitis in Hamstern. As to the kind of experiment: Antibiotic (clindamycin)-induced colitis in hamsters, in vivo. Also noted: species or system syrischen Hamstern (LUG). The procedure: Man verabreicht männlichen, 80-120 g schweren syrischen Hamstern (LUG) eine einmalige Dosis von 175 mg/kg Clindamycin-phosphat oder Clindamycin-hydrochlorid intraperitoneal, um eine Kolitis zu induzieren. Ungefähr 7 Stunden nach dieser Injektion verabreicht man den Tieren die zu testende Verbindung oral oder intraperitoneal. Während einer Periode von 4 weiteren Tagen wird diese Therapie zweimal täglich wiederholt. Für die orale Verabreichung wurde die zu testende Verbindung in Wasser suspendiert oder in Dimethylsulfoxid gelöst und mittels einer Magensonde verabreicht. Der Effekt der Therapie wurde durch das sogenannte "Hazard"-Verhältnis bestimmt. Es handelt sich dabei um das Verhältnis der Sterblichkeitsrate von Tieren, welche mit der zu testenden Verbindung behandelt worden sind, im Vergleich zu den Tieren, welche nur mit Vehikel behandelt worden sind. Die Sterblichkeitsrate wurde zweimal täglich bestimmt und wurde durch Vergleich der Ueberlebenskurven für jede Gruppe ausgewertet. Für jede Gruppe von Versuchstieren wurde die Kaplan-Meier-Schätzung der Ueberlebenskurve berechnet, und es wurde der Mantel-Cox-Test verwendet, um die Ueberlebenskurve der mit Inhibitor behandelten Gruppe mit derjenigen der nur mit Vehikel behandelten Gruppe zu vergleichen. Ein Hazard-Verhältnis von 1,0 bedeutet, dass der Effekt der Therapie nicht besser ist, als derjenige der mit dem Vehikel allein erzielt wird, währenddem ein Hazard-Verhältnis (>1.0) bedeutet, das die Therapie die Ueberlebensrate im Vergleich zu derjenigen Gruppe, welche nur mit dem Vehikel behandelt worden ist, verbessert.

Assay [2] relates to Carrageenin-induzierte Colitis in Meerschweinchen. The experiment in a line: Carrageenin-induced colitis in guinea pigs, in vivo (water transport in distal colon). Also noted: species or system Meerschweinchen (Hartley). To be noted: 10 bzw. 30 mg/kg oral; Figur 5. From the text:
Der Carrageenin-induzierte-Colitis-Bioassay an Meerschweinchen ist durch A. B. Onderdonk in Inflammatory Bowel Diseases, Martinus Nijhoff Publ., Boston, Massachusetts, Seiten 126-134 (1982) und in Human Intestinal Microflora in Health and Disease (D. J. Hentger. ed), Academic Press, New York, 1983, Seiten 447-479 beschrieben worden. Das aus Rotalgen herstammende Polysaccharid Jotacarrageenin bewirkt in Meerschweinchen eine Colitis, welche der ulcerativen Colitis im Menschen ähnlich ist. Männliche und weibliche, 400-650 g Meerschweinchen (Hartley) erhielten via Trinkwasser täglich eine 3-proz. Lösung von abgebautem Carrageenin. Nach etwa 7 Tagen begannen die Versuchstiere eine Diarrhö zu entwickeln, nahmen an Gewicht nicht mehr zu und wurden lethargisch. Nachdem die Versuchstiere während 14 Tagen auf diese Weise Carrageenin verabreicht erhielten, wurde die Diarrhö quantifiziert, und zwar durch Messung des Wassertransportes in den distalen Teil des Kolons durch einfache Pass-Perfusion unter Verwendung von 14C-Polyäthylenglykol 4000 (PEG 4000) als Marker. Kontrolltiere erhielten eine wässrige Trinklösung, enthaltend 3-proz. mannitol anstelle des Carrageenins. Gleichzeitig wurden zufällig ausgewählte Versuchstiere aus diesen beiden Gruppen zweimal täglich mit der Testsubstanz oral behandelt.

A further assay deals with LTE₄. The experiment in a line: Rat colon mucosa in vitro (Ussing short-circuit technique), LTE₄-induced electrolyte secretion. It is filed as cell-based, Ratte. To be noted: 6 animals. From the text: (§1) Das Bioassay-System des Versuches mit der Mucosa des Rattenkolons basiert auf der Messung der durch Absorption oder Sekretion bewirkten Aenderungen im Salztransport durch das tierische Gewebe, wobei man die durch Ussing et al. beschriebene Standard-Kurzschluss-Technik verwendet, Acta Physiol. Scand. 23, 110-127 (1951). Diarrhö ist das häufigste Symptom bei gastrointestinalen Entzündungen und tritt bei allen Typen der Enteritis auf. Pantera, et al., Ital. J. Gastroenterol. 13: 24-27 (1981); Sales, et al., Arch. Int. Med. 143: 294-299 (1983); Hodgson, Br. J. Clin. Pharmac. 14: 159-270 (1982). Diarrhö wird durch eine Abnahme in der Salzabsorption oder eine Zunahme in der Salzsekretion im Darm bewirkt und kann durch die oben erwähnte Methode von Ussing et al. in vitro quantifiziert werden. Man entfernt von 200-250 g schweren Tieren ein 1 cm langes Segment des Kolons, behandelt dieses in vitro mit Leukotrienen oder Bradykinin, welche die Salzsekretion fördern, und misst die erhaltene Aenderung im Netto-Salztransport, welche in Gegenwart und in Abwesenheit von 6-Acetyl-7-[5-(4-acetyl-3-hydroxy-2-propylphenoxy)pentyloxy] -3,4-dihydro-2H-1-benzopyran-2-carbonsäure als Hemmer erhalten wird. Gewebeproben werden paarweise in Ussing-Kammern befestigt und mit automatischen Spannungsklemmen (von der University of Iowa Bioengineering Department) kurzgeschlossen. […]

For a further assay, the system named is LTB₄. The experiment in a line: Rat colon mucosa in vitro (Ussing short-circuit technique), LTB₄-induced electrolyte secretion. Format: cell-based, Ratte. Particulars: 6 animals.
Text: as §1

In another assay the test system is Bradykinin. As to the kind of experiment: Rat colon mucosa in vitro (Ussing short-circuit technique), bradykinin-induced secretion. Particulars: Figur 1; result in words. Format: cell-based, Ratte.
Text: as §1

The subject of the next assay is LTD₄. As to the kind of experiment: Rat colon mucosa in vitro (Ussing short-circuit technique), LTD₄-induced electrolyte secretion. Format: cell-based, Ratte. To be noted: 6 animals.
Text: as §1

The test system of assay [3] is Essigsäure-induzierte Colitis in Ratten. The experiment in a line: Acetic acid-induced colitis in rats, in vivo (myeloperoxidase in colon mucosa). Also noted: species or system Ratten (Sprague-Dawley). From the text:
Der Essigsäure-induzierte-Colitis-Bioassay an Ratten ist durch J.E. Krawisz et al. in Amer. J. Proc. Gastro. Col. Rec. Surg. 31, 11-18 (1980) und P. Sharon und W.F. Stenson in Gastroenterology 88, 55-63 (1985) und 86, 453-460 (1984) beschrieben worden. Die Essigsäure-induzierte Colitis ist durch eine Wanderung von Entzündungszellen in das Kolon charakterisiert. Die Anzahl derartiger Zellen in der Mucosa kann bestimmt werden, indem man die Aktivität der Myeloperoxidase, einem Marker-Enzym für diese Zellen, misst. Eine positive gewünschte Wirkung zeigt sich in einer Reduktion des hohen Myeloperoxidase-Spiegels, der durch die Essigsäure verursacht wird. Männliche, 150-300 g schwere Ratten (Sprague-Dawley) werden während 2 Tagen, zweimal täglich entweder mit dem Vehikel (Wasser oder Dimethylsulfoxid) oder der im Wasser suspendierten oder in Dimethylsulfoxid gelösten Testsubstanz oral vorbehandelt. Am 3. Tag behandelt man die Tiere noch einmal wie an den beiden Vortagen, anästhetisiert mit Metofan, injiziert 2 ml 2,5-proz. Essigsäure mittels einer Spritze in das Lumen des Kolons und unmittelbar danach 3 ml Luft und eine Spüllösung, bestehend aus 3 ml Phosphat-gepufferter Kochsalzlösung, […] genügend lange im Lumen, um eine Entzündung zu induzieren, ohne jedoch schwere Nekrose oder irreversible Schäden zu bewirken). […]

Another assay relates to LTC₄. The experiment in a line: Rat colon mucosa in vitro (Ussing short-circuit technique), LTC₄-induced electrolyte secretion. Format: cell-based, Ratte. To be noted: 6 animals.
Text: as §1

The mark [4] stands for this setting: Inhibitor Konzentration 1 Mikromol.
The mark [5] stands for this setting: Inhibitor Konzentration 10 Mikromol.
Where [6] appears, read: 10 mg/kg intraperitoneal in 0,075 ml PEG-400, twice daily, >1.0 = survival better than vehicle.
Where [7] appears, read: 10 mg/kg oral in 0,15 ml Wasser, twice daily.

Consider “6-Acetyl-7-[5-(4-acetyl-3-hydroxy-2-propylphenoxy)pentyloxy]-3,4-dihydro-2H-1-benzopyran-2-carbonsäure-hexylesters”, for which the Hazardverhältnis in assay [1] (20 µMol/kg oral (Tabelle 3)) is on record as 1,64.

For `CCCc1c(OCCCCCOc2cc3c(cc2C(C)=O)CCC(C(=O)O)O3)ccc(C(C)=O)c1O` (racemic) [6-Acetyl-7-[5-(4-acetyl-3-hydroxy-2-propylphenoxy)pentyloxy] -3,4-dihydro-2H-1-benzopyran-2-carbonsäure], the Wassertransport-Raten result in assay [2] is “praktisch gleich waren, wie diejenigen der Kontroll-Versuchstiere”. Further, the “% Inhibition gegen Leukotriene LTE₄” value in the assay on LTE₄ (Inhibitor Konzentration 1 Mikromol (µM)) is on record as 29,8±15,0%; with LTE₄ (Inhibitor Konzentration 10 Mikromol (µM)), 44,2± 9,8%. In addition, the “% Inhibition gegen Leukotriene LTB₄” value was 44,4±13,1% with LTB₄ (setting [4]) and 69,6±11,9% with LTB₄ (setting [5]). The “sekretorische Aktivität von Bradykinin” value with Bradykinin was “reduzieren”. Moreover, the “% Inhibition gegen Leukotriene LTD₄” value in the assay with LTD₄ (setting [4]) is reported as 30,8±15,4%; in the assay on LTD₄ (setting [5]), 62,4±10,0%. In assay [3] (oral 30 und 90 mg/kg, Figur 3), the “Activity (reduction of myeloperoxidase level caused by acetic acid)” value is reported as “aktiv”. Moreover, the Hazardverhältnis in assay [1] (setting [6]) was 2,87; in assay [1] (setting [7]), 3,80; in assay [1] (60 mg/kg intraperitoneal in 0,075 ml PEG-400, twice daily), 4,77; in assay [1] (60 mg/kg oral in 0,15 ml Wasser, twice daily), 12,0; in assay [1] (100 mg/kg oral in 0,15 ml Wasser, twice daily), 64,2; in assay [1] (20 µMol/kg oral (Tabelle 3)) it was 1,45. Besides, in assay [1] (60 oder 100 mg/kg, in most cases), the “Histopathological effects on cecum and colon (oedema, bleeding, necrosis, erosions, inflammatory cell infiltration)” value is “reduziert oder gänzlich zum Verschwinden gebracht”. Also, the “Activity against antibiotic-induced colitis” value in assay [1] (oral doses 10 bis 100 mg/kg) is on record as “aktiv”. In addition, the Diarrhö result in assay [1] (result in words) is “reduzierte”. Further, in assay [1] (result in words), the “Histopathologie des Cecums und des Kolons” value is reported as “verbesserte in einem beträchtlichen Ausmass”. Also, in assay [1] (result in words), the “Ueberlebensrate der mit Clidamycin behandelten Tiere” value is “erhöht”. In addition, the figures for the “% Inhibition gegen Leukotriene LTC₄” value in the assay with LTC₄ (setting [4]) and in the assay with LTC₄ (setting [5]) were 9,5±19,2% and 57,1+19,7%, respectively.

For the compound `CCCc1c(OCCCCCOc2cc3c(cc2C(C)=O)CCC(C(=O)OC)O3)ccc(C(C)=O)c1O` (racemic) [6-Acetyl-7-[5-(4-acetyl-3-hydroxy-2-propylphenoxy)pentyloxy]-3,4-dihydro-2H-1-benzopyran-2-carbonsäure-methylester], the Hazardverhältnis in assay [1] (20 µMol/kg oral (Tabelle 3)) is reported as 3,42.

For `O=C1CCN(c2ccccc2)N1` [Phenidon, reference compound], the “Activity (reduction of myeloperoxidase level caused by acetic acid)” value in assay [3] (oral 100 und 200 mg/kg, Figur 2) is reported as “aktiv”.

`CCCc1c(OCC(O)COc2ccc3c(=O)cc(C(=O)O)oc3c2CCC)ccc(C(C)=O)c1O` (stereo not drawn) [Vergleichssubstanz 1, 7-[-3-(4-Acetyl-3-hydroxy-2-propyl-phenoxy)-2-hydroxypropoxy] -4-oxo-8-propyl-4H-1-benzopyran-2-carbonsäure, reference compound]: the Hazardverhältnis is reported as 2,02^c in assay [1] (setting [6]) and 1,42 in assay [1] (setting [7]). Moreover, the “Activity against antibiotic-induced colitis” value in assay [1] (oral 10 mg/kg) is “inaktive”.

Take `CCCc1c(OCCCOc2ccc3c(=O)cc(CCCC(=O)O)oc3c2CCC)ccc(C(C)=O)c1O` [Vergleichssubstanz 2, 7-[3-(4-Acetyl-3-hydroxy-2-propylphenoxy)propoxy]-4-oxo-8-propyl-4H-1-benzopryran-2-propancarbonsäure, reference compound]: in assay [1] (13 mg/kg oral in 0,15 ml Wasser, twice daily), the Hazardverhältnis is reported as 1,68. In addition, in assay [1] (oral 10 mg/kg), the “Activity against antibiotic-induced colitis” value is given as “inaktive”.
